According to patent publication US20140322076A1, “ANTIMICROBIAL COMPOSITION” (priority 2011, published 2014):

Columns and labels:
Assay type in all cases: cell-based
[1] = tested on: Escherichia coli (10536 strain); test: Antimicrobial efficacy, 15 seconds contact suspension assay (Examples 1 and 3); details: for MBC (Minimum Biocidal Concentration): lowest concentration with complete kill after 15 seconds contact, active alone, upper boundary to the MBC; for NMBS: Example 3, gamma-terpineol, contact time 15 seconds, concentrations (% w/v) as given per example
Description: The efficacies of antimicrobial agents can be usefully compared by determining the Minimum Biocidal Concentration (MBC). The MBC is defined as the lowest absolute concentration of the particular active that provides complete kill (zero bacterial growth).
ΣFBC=FBC(component 1)+FBC(component 2)+FBC(component 3)+ . . . etc
such that • ΣFBC≧1 corresponds to additive or antagonistic bactericidal activity • ΣFBC<1 corresponds to synergistic bactericidal activity
Antimicrobial efficacy is tested against a representative pathogenic bacterial organism, Gram negative Escherichia coli. Concentrations of actives are expressed in terms of the percentage weight/volume (% w/v) throughout Example 1.
An overnight culture of Escherichia coli (10536 strain) was prepared in 50 ml total volume of TSB broth, grown for ca. 18 hrs at 37° C. and shaken at 150 rpm. 1 ml of this overnight E. coli culture was transferred to 50 ml of fresh TSB broth and incubated at 37° C. at 150 rpm for ca. 4 hours. This culture was separated into equal volumes and centrifuged at 4000 rpm for 15 minutes, washed with sterile saline (0.85% NaCl), centrifuged once more and re-suspended in saline to give a final concentration of 0.8 OD620 equivalent to about 10^8 cells per millilitre for this particular organism. Here, OD620 indicates the absorbance of a sample in a cuvette of 1.0 cm path length at a wavelength of 620 nm. This bacterial stock was used for assaying against antimicrobial actives (in triplicate).
The following assay describes the testing of 8 materials using 6 dilutions across half of a 96-well micro titre plate (MTP). Using this approach it is possible to assay 16 actives (without replicates) with one full dilution plate, replicating this set up in two halves of the plate columns, 1-6 and 7-12.
1M solutions of the test actives were prepared in dimethylsulphoxide (DMSO).
Aliquots (270 μl) of the materials at 1.11 times the final concentration were dispensed into the wells of the MTP along one column (A1-H1). This MTP was labelled as the “Screening plate”.
In another MTP, labelled as the “Dilution plate”, 270 μl of D/E neutralising solution from DIFCO Composition was added to column 1. The composition of the neutralising solution was as follows: pancreatic digest of casein, 5.0 g/L; Yeast Extract, 2.5 g/L; Dextrose, 10 g/L, sodium thioglycollate, 1.0 g/L, sodium thiosulphate, 6.0 g/L; sodium bisulphite, 2.5 g/L; Polysorbate 80, 5.0 g/L; lecithin 7.0 g/L; bromocresol purple, 0.02 g/L with a pH in the range 7.6±0.2.
270 μl of tryptone diluent solution was added to all the remaining wells of the Dilution MTP (columns 2-6).
Bacterial stock (30 μl) was then added to the prepared 270 μl of the solution of actives in the Screening Plate and mixed, using a multichannel pipette with 8 tips to aspirate and dispense the same volume of bacterial stock in parallel to 8 wells in rows A-H. After a contact time of 15 seconds, the mixtures were quenched by transferring 30 μl volumes of the mixtures into the 270 μl D/E neutralising solution in the prepared dilution plate, using aspiration to mix. After exactly 5 minutes in the D/E neutralising solution, 30 μl volumes were transferred from column 1 to column 2 of the Dilution MTP and mixed, before transferring further 30 μl volumes from column 2 into column 3. This process was repeated serially diluting the bacteria across the plate to column 6.
30 μl volumes from each well in the Dilution MTP were transferred onto pre-labelled segment of Tryptone Soya Agar (TSA) plates starting from the lowest bacterial concentration (highest dilution, column 6) to the highest bacterial concentration (column 1). The TSA plates were allowed to stand for ca. 2 hours so that the 30 μl inocula spots could dry and the plates were then inverted and incubated overnight at 37° C. before enumerating the bacterial colonies at the labelled dilutions to determine the effects of the actives on bacterial growth.

[2] = tested on: Escherichia coli (E. coli - ATCC #10536); test: Automated assessment of efficacy in surfactant base (Example 4); details: for MBC: in 2.85% sodium cocoyl glycinate + 1.85% sodium lauroamphoacetate solution at pH 10; for 15 second bactericidal efficacy (in words): in combination with alpha-terpineol at concentrations lower than their MBC, surfactant formulation
Description: In these examples, the efficacy of combinations of isopropylmethylphenols and terpineol were tested in a surfactant cleansing formulation comprising 2.85% sodium cocoyl glycinate and 1.85% sodium lauroamphoacetate. This corresponds to a 50% in use dilution with water of a typical neat formulation containing 5.7% cocoyl glycinate and 3.7% % sodium lauroamphoacetate during hand washing. Solutions were prepared such that the concentrations of the surfactant components and test actives were 1.1 times the final desired concentration in order to allow for dilution with the bacterial inoculum in the test. The solutions were manually adjusted to pH 10.0 by dropwise addition of sodium hydroxide solution, as measured with a pH meter at ambient temperature. Solutions of the isopropylmethylphenols and/or terpineols were prepared at a maximum of 24 hours before testing. The same terpineol was used as in Example 1.
The efficacy of the combinations of the present invention was determined against the same bacterium as in Example 1, Escherichia coli (E. coli—ATCC #10536), at a concentration of approximately 1×10^8 bacteria per mL.
Tests were conducted using standard microtiter plate assays using an automated liquid handling system. 270 μl of the surfactant test solution was pipetted into each well of the microtitre plate (Nunc F Gamma Irradiated 96F untreated microtitre plates of clear polystyrene) and 30 μl of the bacterial suspension was then added. After exactly 15 seconds of bacterial exposure, a 30 μl volume of bacterial cells was withdrawn and transferred to 270 μl of D/E quench solution. After 5 minutes in the D/E quench, the optical density (OD) was measured for each plate in turn at two specific wavelengths (450 nm and 590 nm). These provide a dual check of antimicrobial activity, as the OD450 reading is specific for the yellow colour of D/E quench when bacterial growth is observed, whereas OD590 is specific for the initial purple colour of the D/E quench which is retained if no bacterial growth is observed. After the time zero OD measurements, plates were then incubated at 37° C. overnight (16 hours) before repeating the OD measurements. Delta OD values were calculated by subtracting […] at time=16 hours.
Bacterial growth is observed as an increase in OD450 and a decrease in OD590. To identify antibacterially efficacious systems (those preventing appreciable bacterial growth after incubation), the following threshold changes in OD readings have been adopted: if (1). OD450 increases by less than 0.2 absorbance unit (AU) on incubation and (2). OD590 decreases by less than 0.35 AU on incubation. Conversely, where OD450 increases by more than 0.1 AU and OD590 decreases by more than 0.1 AU after incubation, corresponding to a colour shift from purple to yellow, the test system allows bacterial growth and is not deemed efficacious. Four replicate measurements in the same plate have been made for each test system. The number of replicate wells showing either bacterial growth or no growth is also readily assessed by eye by following the colour change. Thymol and terpineol were tested both alone and in combination for comparison purposes.
In each case, binary mixtures were assessed in the weight to weight ratio isopropylmethylphenol to alpha terpineol of 1:2.5.

[3] = tested on: Escherichia coli (E. coli - ATCC #10536); test: High resolution MBC synergy assay in phosphate buffer containing 35% dipropylene glycol (Example 2); details: for ΣFBC: calculated from Ca/MBCA + Cb/MBCB; for MBC of the component alone (MBCA, MBCB): complete kill in 15 seconds, phosphate buffer, 35% DPG
Description: The materials were sourced in the same way as for Example 1. Synergy tests were conducted using standard microtiter plate assays with phosphate buffer containing 35% dipropylene glycol (DPG). […] The MBC plate was inoculated one column at a time with the test microorganism. An aliquot of the inoculated well was transferred at 15 seconds to a plate containing a neutralizing agent (D/E Neutralizing Broth), mixed and held for 5 minutes before being transferred to a growth plate containing trypticase soy broth (TSB). The TSB plate was incubated at 37° C. and read for the presence/absence of growth at 24 hours. […] This microorganism is representative of natural contaminants in many consumer and industrial applications.

| Structure (SMILES) | MBC (Minimum Biocidal Concentration) [1] | MBC [2] | NMBS [1] | also measured |
| --- | --- | --- | --- | --- |
| Cc1cc(O)cc(C(C)C)c1 [3-isopropyl-5-methylphenol] | 0.05 % w/v | >0.2 % w/v | – | 15 second bactericidal efficacy (in words) [2]: complete kill in all 4 replicates; ΣFBC [3]: 1.00; MBC of the component alone (MBCA, MBCB) [3]: 0.5 weight % |
| CC(C)=C1CCC(C)(O)CC1 (stereo not shown) [3:4, gamma-terpineol] | – | – | 7.84 log CFU/ml | – |
| Cc1cc(O)ccc1C(C)C [3:5, 4-isopropyl-3-methylphenol] | – | – | 4.98 log CFU/ml | – |
| Cc1cc(O)ccc1C(C)C [3:6, 4-isopropyl-3-methylphenol] | – | – | 7.78 log CFU/ml | – |
| Cc1cc(O)ccc1C(C)C [3:7, 4-isopropyl-3-methylphenol] | – | – | 7.79 log CFU/ml | – |
| Cc1cc(O)ccc1C(C)C [4-isopropyl-3-methylphenol] | 0.075 % w/v | >0.2 % w/v | – | 15 second bactericidal efficacy (in words) [2]: complete kill in all 4 replicates |
| CC1=CCC(C(C)(C)O)CC1 (stereo not drawn) [alpha-terpineol] | – | >0.5 % w/v | – | reduction of the terpineol concentration required for complete kill ([1]; 0.4% alone to […] in combination with […] w/v 4-isopropyl-3-methylphenol or 3-isopropyl-5-methylphenol): 2.7 fold; ΣFBC [3]: 1.00; MBC of the component alone (MBCA, MBCB) [3]: 0.6 weight % |
| CC(C)=C1CCC(C)(O)CC1 (stereo not shown) [gamma-terpineol] | 0.3 % w/v | – | – | – |
| Cc1ccc(C(C)C)c(O)c1 [thymol, thymol (2-isopropyl-5-methylphenol)] | 0.05 % w/v | >0.2 % w/v | – | – |
